PMC12117998, “First Steps toward the Design of Peptides that Influence the Intracellular Palmitoylation Machinery” (Chembiochem, 2025)
No end group written: not given here.

Tests used:
MDA‐MB‐231 = assay: Cellular uptake by flow cytometry; assay type: cell-based; details: MDA‐MB‐231, 30 min, 5 μM CF‐labeled peptides, serum-free medium, 37 °C, n ≥ 3 (Figure 3E)
Procedure: (§1) HeLa (90,000), MDA‐MB‐231 (120,000), and HFF‐1 (125,000) cells were seeded into a 24‐well plate. Cells were treated with the desired concentration of CF‐labeled peptide diluted in the appropriate serum‐free medium for 30 min at 37 °C and 5% CO2. Afterward, cells were washed once with PBS, detached from the plate using indicator‐free trypsin/EDTA and resuspended in indicator‐free culture medium. The cell mixture was measured on the Guava easyCyte flow cytometer (Merck) using the GRN‐B (520/30) detector.

HFF‐1 cells = assay: Cellular uptake by flow cytometry; assay type: cell-based, human; details: HFF‐1, 30 min, 5 μM CF‐labeled peptides, serum-free medium, 37 °C, n ≥ 3 (Figure 3F)
Procedure: as §1

MCF‐10 A breast spheroid = assay: Confocal time‐lapse imaging of spheroids; assay type: cell-based, human; details: 10‐day‐old MCF‐10 A spheroids, 10 μM CF‐labeled peptide, imaged every 45 s for 20 min, n ≥ 2 (Figure 7)
Procedure: Spheroids from single MCF10‐A cells were generated for 10 days as described in ref. [66]. For further analyses, spheroids were isolated from EHS matrix through incubation in 2 mL ice‐cold cell recovery solution (BD Biosciences) for 30 min (4 °C). Next, spheroids were washed with fresh EGF‐free medium and individually picked under a stereo microscope for seeding onto 35 mm cell culture dishes with microscopic glass bottoms (Cover Slip, 24 × 24 mm, #1.5 HP, Menzel‐Gläser). Spheroids adhered to glass substrates for 15 min (RT) and were subsequently covered with 0.9 mL fresh EGF‐free growth medium.
Live‐cell imaging was performed at 37 °C and 5% CO2 (cell incubator XL, Zeiss, Germany) with an inverse confocal laser scanning microscope (LSM880 with Airyscan detector) that used a 40x LD C‐Apochromat water immersion objective (NA 1.1, Zeiss). Before addition of peptides, control images were taken. Subsequently, peptide was added to a final concentration of 10 μM and spheroids immediately imaged every 45 s for 20 min. The observed plane was at the equatorial plane of a spheroid, where the diameter was largest. Images were taken with Fast Airyscan and subsequent processing using the ZEN 2.3 black software (Zeiss). Z‐stacks were taken right after the time series in 1 μm steps with the same microscopic settings.

HeLa cells = assay: Live‐cell fluorescence imaging of peptide uptake; assay type: cell-based
Procedure: HeLa (40,000), MDA‐MB‐231 (30,000), or HFF1 (55,000) cells were seeded into an 8‐well ibidi. Cells were treated for 30 min with 5 μM of CF‐labeled peptide diluted in the appropriate serum‐free media. The cell nuclei were stained with the Hoechst 33342 nuclear dye for the last 10 min of the total incubation time. Afterward, cells were washed three to four times using serum‐free medium and finally, medium containing FBS was added for the microscopy. Live fluorescence microscopy analyses were performed on the LSM 980 with Airyscan 2 Inverse Confocal Laser Scanning Microscope (Carl Zeiss) on a 63X Plan‐Apochromat oil objective (NA 1.4, Zeiss) at 37 °C and 5% CO2 or on the BZ‐X810 (Keyence) using a 60X Plan‐Apochromat oil objective (NA 1.4, Keyence). Images were cropped and processed using Fiji.
Hela cells (15,000) were seeded into a 96-well plate. Cells were treated with suitable peptide concentrations diluted in the corresponding serum-free culture medium. After 1 h peptide incubation under standard growth conditions, the positive control was either directly treated with lysis solution or the supernatant was exchanged for serum-free culture medium and the plate was incubated for further 5 h under growing conditions. The CytoTox-ONE™ Reagent was added and incubated at RT for 10 minutes. Finally, the Stop Solution was added and the fluorescence was measured at 595 nm (λex = 550 nm) on an infinite M200 plate reader (Tecan) and normalized to the positive control cells.
Red blood cells (RBCs) were washed three times in PBS by centrifug ing at 4 °C and 3,000 x g for 5 min and diluted to 5% in PBS. The desired peptide concentrations diluted in PBS were added into a 96-well plate. Next, 5% RBCs in PBS were added into the wells and incubated for 24 h at 37 °C and 5% CO2. As a positive control, RBCs were mixed with 10% Triton X-100 in PBS. […] Lastly, the absorption (λ=560 nm) was measured on the infinite M200 plate reader (Tecan). For the evaluation, the measured absorption of the Triton-X-100 treatment was set to a hemolysis rate […]

Substance: GLRKRLRKFRNKKMDHHCPW-NH2 [DC‐2, CPP sC18* fused to the DHHC motif derived from ZDHHC2/3/6/7/15/16/20]
- cellular uptake (in words) (MDA‐MB‐231): internalized to a higher extent compared to DC‐4
- cellular uptake (in words) (HFF‐1 cells): internalized to a higher extent compared to DC‐4
- infiltration of basement membrane (BM)‐covered spheroids (MCF‐10 A breast spheroid): efficiently surpassed the BM and translocated into many cells
- time‐lapse cellular uptake (HeLa cells; 5 μM CF-DC-2, imaged every 10 sec for 30 min (Video 1)): rapid cellular uptake
- intracellular uptake pattern (HeLa cells; 30 min, 5 μM CF‐labeled peptides, confocal laser scanning microscopy (Figure 3G)): diffuse cytosolic pattern
